# Experimental data: ChEMBL document CHEMBL4507319 (2021)
# Columns and labels:
# [1] = molecular target: Serine/threonine-protein kinase SIK3 (Homo sapiens) (UniProt Q9Y2K2); conditions: Compound concentration 1000.0 nM
# [2] = molecular target: Serine/threonine-protein kinase Nek4 (Homo sapiens) (UniProt P51957); conditions: Compound concentration 1000.0 nM
# [3] = molecular target: Phosphatidylinositol 5-phosphate 4-kinase type-2 gamma (Homo sapiens) (UniProt Q8TBX8); conditions: Compound concentration 1000.0 nM
# [4] = molecular target: Mitogen-activated protein kinase 15 (Homo sapiens) (UniProt Q8TD08); conditions: Compound concentration 1000.0 nM
# [5] = molecular target: T1, Tyrosine-protein kinase Tec (Homo sapiens) (UniProt P42680); conditions: Compound concentration 1000.0 nM
# T1 sequence (whole entry): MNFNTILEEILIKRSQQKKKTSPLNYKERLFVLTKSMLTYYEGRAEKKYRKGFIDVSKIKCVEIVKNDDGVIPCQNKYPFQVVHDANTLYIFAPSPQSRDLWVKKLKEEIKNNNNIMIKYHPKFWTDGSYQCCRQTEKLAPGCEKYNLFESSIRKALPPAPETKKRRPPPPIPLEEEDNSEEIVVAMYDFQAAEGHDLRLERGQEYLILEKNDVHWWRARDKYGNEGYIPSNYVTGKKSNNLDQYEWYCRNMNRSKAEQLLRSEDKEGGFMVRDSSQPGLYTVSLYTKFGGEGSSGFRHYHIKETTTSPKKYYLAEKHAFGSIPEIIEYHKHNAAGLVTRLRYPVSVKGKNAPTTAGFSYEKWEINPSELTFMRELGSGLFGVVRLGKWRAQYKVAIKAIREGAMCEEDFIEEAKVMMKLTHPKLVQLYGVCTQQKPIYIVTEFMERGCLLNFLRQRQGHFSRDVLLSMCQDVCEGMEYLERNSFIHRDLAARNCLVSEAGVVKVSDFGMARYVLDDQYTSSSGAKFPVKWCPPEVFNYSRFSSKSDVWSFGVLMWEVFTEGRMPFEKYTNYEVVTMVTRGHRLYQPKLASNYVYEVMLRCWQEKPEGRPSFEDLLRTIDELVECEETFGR
# [6] = test system: Tyrosine-protein kinase ABL1 (Homo sapiens), P00519 [T315I]; conditions: Compound concentration 1000.0 nM
# [7] = molecular target: T2, Tyrosine-protein kinase Mer (Homo sapiens) (UniProt Q12866); conditions: Compound concentration 1000.0 nM
# T2 sequence (whole entry): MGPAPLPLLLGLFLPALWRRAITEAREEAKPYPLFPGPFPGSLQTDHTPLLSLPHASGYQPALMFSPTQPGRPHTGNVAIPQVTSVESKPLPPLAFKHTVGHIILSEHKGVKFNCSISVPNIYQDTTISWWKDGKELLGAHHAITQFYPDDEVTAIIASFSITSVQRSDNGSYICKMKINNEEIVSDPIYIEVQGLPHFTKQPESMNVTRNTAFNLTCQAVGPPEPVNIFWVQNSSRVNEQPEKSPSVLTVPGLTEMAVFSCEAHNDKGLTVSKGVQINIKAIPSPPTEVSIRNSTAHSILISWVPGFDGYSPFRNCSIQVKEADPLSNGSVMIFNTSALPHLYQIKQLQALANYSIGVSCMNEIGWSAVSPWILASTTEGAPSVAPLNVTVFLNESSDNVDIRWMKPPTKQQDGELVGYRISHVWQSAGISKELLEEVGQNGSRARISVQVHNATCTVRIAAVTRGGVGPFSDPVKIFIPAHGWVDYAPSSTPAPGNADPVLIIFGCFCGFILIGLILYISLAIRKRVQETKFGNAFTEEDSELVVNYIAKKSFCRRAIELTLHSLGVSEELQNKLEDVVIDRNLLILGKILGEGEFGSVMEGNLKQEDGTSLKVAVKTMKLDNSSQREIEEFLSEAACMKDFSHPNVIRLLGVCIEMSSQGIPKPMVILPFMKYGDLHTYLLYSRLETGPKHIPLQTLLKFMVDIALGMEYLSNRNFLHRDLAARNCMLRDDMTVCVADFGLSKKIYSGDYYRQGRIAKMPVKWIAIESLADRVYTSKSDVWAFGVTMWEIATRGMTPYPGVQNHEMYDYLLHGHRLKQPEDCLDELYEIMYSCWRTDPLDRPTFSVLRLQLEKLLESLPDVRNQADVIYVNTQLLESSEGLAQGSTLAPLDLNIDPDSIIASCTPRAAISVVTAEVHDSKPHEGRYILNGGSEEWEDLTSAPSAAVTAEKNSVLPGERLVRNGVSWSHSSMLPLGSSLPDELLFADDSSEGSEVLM
# [8] = molecular target: Serine/threonine-protein kinase Nek7 (Homo sapiens) (UniProt Q8TDX7); conditions: Compound concentration 1000.0 nM
# [9] = molecular target: Serine/threonine-protein kinase Nek5 (Homo sapiens) (UniProt Q6P3R8); conditions: Compound concentration 1000.0 nM
# [10] = test system: Phosphatidylinositol 4,5-bisphosphate 3-kinase catalytic subunit alpha isoform (Homo sapiens), P42336 [I800L]; conditions: Compound concentration 1000.0 nM
# [11] = molecular target: Dual specificity protein kinase CLK1 (Homo sapiens) (UniProt P49759); conditions: Compound concentration 1000.0 nM
# [12] = molecular target: Serine/threonine-protein kinase 10 (Homo sapiens) (UniProt O94804); conditions: Compound concentration 1000.0 nM
# [13] = test system: Receptor-type tyrosine-protein kinase FLT3 (Homo sapiens), P36888 [UNDEFINED MUTATION]; conditions: Compound concentration 1000.0 nM
# [14] = molecular target: Atypical kinase COQ8A, mitochondrial (Homo sapiens) (UniProt Q8NI60); conditions: Compound concentration 1000.0 nM
# [15] = molecular target: Bone morphogenetic protein receptor type-1B (Homo sapiens) (UniProt O00238); conditions: Compound concentration 1000.0 nM
# [16] = molecular target: Casein kinase I isoform gamma-2 (Homo sapiens) (UniProt P78368); conditions: Compound concentration 1000.0 nM
# [17] = molecular target: Phosphatidylinositol 4-phosphate 5-kinase type-1 gamma (Homo sapiens) (UniProt O60331); conditions: Compound concentration 1000.0 nM
# [18] = molecular target: Serine/threonine-protein kinase PAK 3 (Homo sapiens) (UniProt O75914); conditions: Compound concentration 1000.0 nM
# [19] = molecular target: Mitogen-activated protein kinase kinase kinase 10 (Homo sapiens) (UniProt Q02779); conditions: Compound concentration 1000.0 nM
# [20] = test system: Epidermal growth factor receptor (Homo sapiens), P00533 [L858R,T790M]; conditions: Compound concentration 1000.0 nM
# [21] = molecular target: Cyclin-dependent kinase 11A (Homo sapiens) (UniProt Q9UQ88); conditions: Compound concentration 1000.0 nM
# [22] = molecular target: Muscarinic acetylcholine receptor M4 (Homo sapiens) (UniProt P08173); conditions: Compound concentration 10.0 uM
# [23] = molecular target: MAP kinase-activated protein kinase 2 (Homo sapiens) (UniProt P49137); conditions: Compound concentration 1000.0 nM
# Chain of Dual specificity protein kinase CLK1 (Homo sapiens) (P49759 whole entry, looked up): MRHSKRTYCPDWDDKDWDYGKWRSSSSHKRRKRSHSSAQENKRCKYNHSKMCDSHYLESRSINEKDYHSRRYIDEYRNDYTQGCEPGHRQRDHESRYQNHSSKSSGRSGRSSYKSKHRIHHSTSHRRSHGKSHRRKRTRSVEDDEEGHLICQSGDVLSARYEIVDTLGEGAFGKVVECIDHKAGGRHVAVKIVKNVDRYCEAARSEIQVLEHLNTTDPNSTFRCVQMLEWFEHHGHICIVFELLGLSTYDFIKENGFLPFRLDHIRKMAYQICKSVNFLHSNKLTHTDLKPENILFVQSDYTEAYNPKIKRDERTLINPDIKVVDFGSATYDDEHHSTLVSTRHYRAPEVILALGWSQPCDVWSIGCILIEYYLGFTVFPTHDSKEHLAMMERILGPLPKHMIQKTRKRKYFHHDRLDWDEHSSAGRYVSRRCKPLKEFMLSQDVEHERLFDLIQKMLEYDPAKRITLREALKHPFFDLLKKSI
# Chain of Muscarinic acetylcholine receptor M4 (Homo sapiens) (P08173 whole entry): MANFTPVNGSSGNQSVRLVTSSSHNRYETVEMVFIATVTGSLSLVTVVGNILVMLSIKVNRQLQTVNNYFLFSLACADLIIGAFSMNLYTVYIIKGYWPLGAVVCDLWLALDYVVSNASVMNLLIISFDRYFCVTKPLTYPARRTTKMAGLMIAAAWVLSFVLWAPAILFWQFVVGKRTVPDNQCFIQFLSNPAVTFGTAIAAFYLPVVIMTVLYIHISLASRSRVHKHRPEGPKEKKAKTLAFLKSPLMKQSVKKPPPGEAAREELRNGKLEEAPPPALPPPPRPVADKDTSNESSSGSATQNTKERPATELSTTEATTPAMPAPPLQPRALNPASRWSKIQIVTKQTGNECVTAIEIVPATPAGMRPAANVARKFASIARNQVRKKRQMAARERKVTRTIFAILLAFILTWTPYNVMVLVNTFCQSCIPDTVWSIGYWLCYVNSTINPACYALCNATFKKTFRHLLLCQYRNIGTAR
# Chain of Serine/threonine-protein kinase Nek5 (Homo sapiens) (Q6P3R8 whole entry, canonical isoform): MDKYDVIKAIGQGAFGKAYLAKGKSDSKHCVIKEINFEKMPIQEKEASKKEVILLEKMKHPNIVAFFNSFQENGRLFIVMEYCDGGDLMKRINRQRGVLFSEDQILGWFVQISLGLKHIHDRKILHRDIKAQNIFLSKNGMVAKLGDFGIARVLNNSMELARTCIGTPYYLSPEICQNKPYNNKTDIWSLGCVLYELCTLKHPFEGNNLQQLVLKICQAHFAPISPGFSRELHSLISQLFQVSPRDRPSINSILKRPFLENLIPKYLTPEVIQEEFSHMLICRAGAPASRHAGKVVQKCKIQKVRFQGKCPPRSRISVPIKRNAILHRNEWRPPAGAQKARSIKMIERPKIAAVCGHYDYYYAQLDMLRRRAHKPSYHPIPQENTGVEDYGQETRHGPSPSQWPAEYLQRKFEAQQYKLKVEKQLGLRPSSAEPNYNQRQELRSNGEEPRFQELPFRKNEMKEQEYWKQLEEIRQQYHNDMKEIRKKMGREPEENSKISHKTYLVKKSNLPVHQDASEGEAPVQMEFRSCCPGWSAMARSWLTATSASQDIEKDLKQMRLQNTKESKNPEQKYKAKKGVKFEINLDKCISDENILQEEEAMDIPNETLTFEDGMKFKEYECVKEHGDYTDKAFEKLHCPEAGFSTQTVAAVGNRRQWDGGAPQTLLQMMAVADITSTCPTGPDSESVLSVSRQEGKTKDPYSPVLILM
# Chain of Serine/threonine-protein kinase SIK3 (Homo sapiens) (Q9Y2K2 whole entry, looked up): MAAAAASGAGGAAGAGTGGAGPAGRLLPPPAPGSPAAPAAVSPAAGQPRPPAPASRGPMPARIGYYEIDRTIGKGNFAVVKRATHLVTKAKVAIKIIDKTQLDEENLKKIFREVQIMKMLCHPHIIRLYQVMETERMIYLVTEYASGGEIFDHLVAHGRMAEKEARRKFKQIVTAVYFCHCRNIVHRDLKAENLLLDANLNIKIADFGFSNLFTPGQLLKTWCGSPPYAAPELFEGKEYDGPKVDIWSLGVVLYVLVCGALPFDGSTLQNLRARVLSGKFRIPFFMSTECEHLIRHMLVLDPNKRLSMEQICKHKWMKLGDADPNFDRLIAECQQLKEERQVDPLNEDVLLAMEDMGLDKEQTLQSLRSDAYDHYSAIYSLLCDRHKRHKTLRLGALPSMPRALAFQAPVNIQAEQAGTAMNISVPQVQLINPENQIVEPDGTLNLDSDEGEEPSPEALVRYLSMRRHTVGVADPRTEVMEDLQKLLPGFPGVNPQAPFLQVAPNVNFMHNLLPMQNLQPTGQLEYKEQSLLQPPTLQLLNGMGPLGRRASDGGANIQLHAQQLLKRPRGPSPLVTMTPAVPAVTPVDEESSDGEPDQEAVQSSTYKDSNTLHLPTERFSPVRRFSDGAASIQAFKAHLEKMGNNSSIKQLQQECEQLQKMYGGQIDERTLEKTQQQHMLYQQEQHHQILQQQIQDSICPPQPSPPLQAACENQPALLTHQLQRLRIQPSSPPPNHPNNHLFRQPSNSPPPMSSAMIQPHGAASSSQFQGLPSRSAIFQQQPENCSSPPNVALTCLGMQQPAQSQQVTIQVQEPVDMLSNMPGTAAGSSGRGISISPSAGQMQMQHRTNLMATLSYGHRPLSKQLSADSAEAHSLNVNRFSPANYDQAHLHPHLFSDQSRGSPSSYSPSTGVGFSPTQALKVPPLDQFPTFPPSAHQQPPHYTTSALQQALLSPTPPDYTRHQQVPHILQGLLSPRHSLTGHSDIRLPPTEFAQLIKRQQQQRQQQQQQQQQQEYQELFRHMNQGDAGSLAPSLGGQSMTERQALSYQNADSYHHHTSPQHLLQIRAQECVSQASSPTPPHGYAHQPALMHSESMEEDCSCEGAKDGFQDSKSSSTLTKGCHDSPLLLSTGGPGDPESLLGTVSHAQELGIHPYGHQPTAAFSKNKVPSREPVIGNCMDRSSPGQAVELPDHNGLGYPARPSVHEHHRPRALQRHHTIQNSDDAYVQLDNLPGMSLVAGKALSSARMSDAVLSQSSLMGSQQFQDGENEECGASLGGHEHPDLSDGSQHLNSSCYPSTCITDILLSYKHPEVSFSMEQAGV
# Chain of Phosphatidylinositol 4,5-bisphosphate 3-kinase catalytic subunit alpha isoform (Homo sapiens), P42336 [I800L] (P42336 whole entry I800L, canonical isoform): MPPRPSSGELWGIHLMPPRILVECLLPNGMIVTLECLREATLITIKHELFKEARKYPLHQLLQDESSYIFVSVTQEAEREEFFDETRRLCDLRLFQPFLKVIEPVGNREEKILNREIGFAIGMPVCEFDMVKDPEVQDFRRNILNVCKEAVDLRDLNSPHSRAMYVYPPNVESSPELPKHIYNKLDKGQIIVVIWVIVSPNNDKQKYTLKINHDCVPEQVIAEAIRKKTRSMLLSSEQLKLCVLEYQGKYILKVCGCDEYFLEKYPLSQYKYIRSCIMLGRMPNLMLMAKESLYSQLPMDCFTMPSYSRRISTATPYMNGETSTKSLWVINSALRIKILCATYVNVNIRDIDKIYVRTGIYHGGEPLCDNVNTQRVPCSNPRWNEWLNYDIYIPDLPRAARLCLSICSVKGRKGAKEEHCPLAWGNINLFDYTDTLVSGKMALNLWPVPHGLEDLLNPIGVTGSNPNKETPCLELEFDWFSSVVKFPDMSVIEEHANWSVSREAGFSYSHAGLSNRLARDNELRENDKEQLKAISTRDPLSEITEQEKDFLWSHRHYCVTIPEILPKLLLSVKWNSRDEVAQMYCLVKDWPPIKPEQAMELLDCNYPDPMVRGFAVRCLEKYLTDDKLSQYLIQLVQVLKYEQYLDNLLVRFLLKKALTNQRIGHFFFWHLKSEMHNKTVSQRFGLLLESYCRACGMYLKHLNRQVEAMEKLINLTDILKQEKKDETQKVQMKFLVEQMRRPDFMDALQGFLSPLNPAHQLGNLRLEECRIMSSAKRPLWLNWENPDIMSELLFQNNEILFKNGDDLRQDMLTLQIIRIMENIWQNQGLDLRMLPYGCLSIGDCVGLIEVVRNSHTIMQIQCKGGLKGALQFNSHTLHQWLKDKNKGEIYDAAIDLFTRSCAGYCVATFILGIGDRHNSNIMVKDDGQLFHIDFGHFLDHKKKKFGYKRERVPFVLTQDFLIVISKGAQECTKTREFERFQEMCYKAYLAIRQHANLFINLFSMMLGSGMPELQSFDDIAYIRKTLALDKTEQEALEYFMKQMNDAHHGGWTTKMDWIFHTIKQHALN
# Chain of Mitogen-activated protein kinase 15 (Homo sapiens) (Q8TD08 whole entry): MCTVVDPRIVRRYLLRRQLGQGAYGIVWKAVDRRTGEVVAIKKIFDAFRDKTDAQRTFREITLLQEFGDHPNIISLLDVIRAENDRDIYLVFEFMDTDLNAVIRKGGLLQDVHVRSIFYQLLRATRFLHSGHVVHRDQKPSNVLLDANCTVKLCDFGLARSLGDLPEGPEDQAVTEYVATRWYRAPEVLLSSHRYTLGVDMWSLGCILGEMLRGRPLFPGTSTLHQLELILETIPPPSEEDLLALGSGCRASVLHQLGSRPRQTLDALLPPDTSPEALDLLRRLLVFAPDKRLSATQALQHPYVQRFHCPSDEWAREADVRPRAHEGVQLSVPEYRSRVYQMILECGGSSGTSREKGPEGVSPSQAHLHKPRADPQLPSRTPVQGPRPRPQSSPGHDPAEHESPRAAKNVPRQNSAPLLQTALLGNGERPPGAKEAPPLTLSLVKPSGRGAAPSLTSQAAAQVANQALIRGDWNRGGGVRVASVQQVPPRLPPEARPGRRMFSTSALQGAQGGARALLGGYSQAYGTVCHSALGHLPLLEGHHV
# Chain of Phosphatidylinositol 5-phosphate 4-kinase type-2 gamma (Homo sapiens) (Q8TBX8 whole entry): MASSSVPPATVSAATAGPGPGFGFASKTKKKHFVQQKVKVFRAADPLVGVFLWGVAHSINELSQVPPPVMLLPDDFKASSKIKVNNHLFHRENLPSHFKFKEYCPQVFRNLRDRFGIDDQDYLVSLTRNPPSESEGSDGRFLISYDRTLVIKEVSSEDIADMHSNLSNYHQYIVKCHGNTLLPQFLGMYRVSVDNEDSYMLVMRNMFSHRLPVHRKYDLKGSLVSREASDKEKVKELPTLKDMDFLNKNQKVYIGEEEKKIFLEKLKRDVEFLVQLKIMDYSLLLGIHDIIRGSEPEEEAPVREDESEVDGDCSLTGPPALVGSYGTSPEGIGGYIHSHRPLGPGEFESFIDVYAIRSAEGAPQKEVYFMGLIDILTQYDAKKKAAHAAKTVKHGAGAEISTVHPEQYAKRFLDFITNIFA
Structure (SMILES),residual activity [1],residual activity [2],residual activity [3],residual activity [4],residual activity [5],residual activity [6],residual activity [7],residual activity [8],residual activity [9],residual activity [10],residual activity [11],residual activity [12],residual activity [13],residual activity [14],residual activity [15],residual activity [16],residual activity [17],residual activity [18],residual activity [19],residual activity [20],further results
CCc1ccccc1C(=O)Nc1n[nH]c2c(C)c(F)c(C3C(C#N)=C(C)N(C)C(C)=C3C#N)cc12 [BAY-3827],74%,100%,77%,81%,91%,100%,80%,83%,100%,100%,84%,100%,11%,84%,96%,97%,56%,86%,100%,97%,residual activity [21]: 86%; inhibition [22]: 8.27%; residual activity [23]: 100%
CC1=C(C#N)C(c2ccc3c(c2)c(NC(=O)c2ccccc2C)nn3C)C(C#N)=C(C)N1 [BAY-974],81%,100%,92%,89%,100%,88%,100%,96%,100%,93%,87%,68%,96%,100%,91%,95%,91%,67%,69%,93%,residual activity [21]: 100%; inhibition [22]: 6.87%; residual activity [23]: 84%
